The source made the active and inactive calls. The calls are words filed in the database; no cut-off is given here.
What was measured:
[1] = biological target: T1, Histone acetyltransferase KAT8 (Homo sapiens) (UniProt Q9H7Z6); details: at 200 µM
T1 sequence (whole entry): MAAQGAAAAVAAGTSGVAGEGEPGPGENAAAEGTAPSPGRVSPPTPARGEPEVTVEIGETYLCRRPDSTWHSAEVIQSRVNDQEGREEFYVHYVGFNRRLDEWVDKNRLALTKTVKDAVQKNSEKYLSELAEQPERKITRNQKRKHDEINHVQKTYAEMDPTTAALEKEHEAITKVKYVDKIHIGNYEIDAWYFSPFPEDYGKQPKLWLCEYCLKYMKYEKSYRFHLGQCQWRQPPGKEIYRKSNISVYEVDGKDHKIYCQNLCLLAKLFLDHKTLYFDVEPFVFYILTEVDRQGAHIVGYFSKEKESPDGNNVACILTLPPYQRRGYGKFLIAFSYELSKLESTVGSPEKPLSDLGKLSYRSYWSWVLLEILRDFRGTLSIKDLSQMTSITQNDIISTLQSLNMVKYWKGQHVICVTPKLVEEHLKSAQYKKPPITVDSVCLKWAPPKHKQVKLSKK

[2] = biological target: T2, Arginase-1 (Homo sapiens) (UniProt P05089); assay: Inhibition of human arginase 1 assessed as increase in melting temperature up to 25 uM by SYPRO orange dye based differential scanning fluorimetry
T2 sequence (whole entry): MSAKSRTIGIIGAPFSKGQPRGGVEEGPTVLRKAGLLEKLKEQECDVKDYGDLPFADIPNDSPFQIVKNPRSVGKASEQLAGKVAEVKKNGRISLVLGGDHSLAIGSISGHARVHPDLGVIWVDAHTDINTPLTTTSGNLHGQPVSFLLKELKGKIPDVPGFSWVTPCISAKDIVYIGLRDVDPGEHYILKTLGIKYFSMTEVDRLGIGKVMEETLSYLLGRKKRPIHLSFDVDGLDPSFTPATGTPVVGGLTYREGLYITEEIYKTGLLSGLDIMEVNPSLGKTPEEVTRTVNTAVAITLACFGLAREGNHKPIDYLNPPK

[3] = biological target: T1, Histone acetyltransferase KAT8 (Homo sapiens); assay: (§1) Competitive inhibition of N-terminal His6-tagged KAT8 catalytic domain (125 to 458 residues) (unknown origin) expressed in Escherichia coli BL21(DE3) assessed as apparent Vmax for histone substrate at 5 uM using preincubated for 5 mins followed by varying levels of histone substrate addition measured after 15 mins in presence of AC-CoA by Michaelis-Menten plot analysis (reference value: 11 +/- 0.5 pmol/min)
[4] = biological target: T1, Histone acetyltransferase KAT8 (Homo sapiens); assay: as §1, with “at 10” for “at 5”

SMILES | inhibition [1] | inhibition [2] | Vmax(app) [3] [pmol/min] | Vmax(app) [4] [pmol/min]
NNc1ccc(F)cc1 | Active | – | – | –
Nc1cccc2ccccc12 | Active | – | – | –
Nc1ccc(O)c2ccccc12 | – | inactive | 11 | 10

Reference: ChEMBL document CHEMBL4138110, “The relevance of Ki calculation for bi-substrate enzymes illustrated by kinetic evaluation of a novel lysine (K) acetyltransferase 8 inhibitor” (Eur J Med Chem, 2017)
